Earlier results on two molecules are cited in patent publication US6011041A, “Use of anhydrovinblastine” (priority 1996, dated 2000).

Where a name gives a salt, the structure may show the parent alone.

The subject of one series is human rhabdosarcomas. Conditions: in vivo; cited from earlier work.
A further series deals with tumour. To be noted: alkaloids extracted from Vinca rosea; cited from earlier work.
For the next series, the system named is L1210 leukemia. To be noted: cited from earlier work.

For the molecule `CC[C@]1(O)C[C@H]2CN(CCc3c([nH]c4ccccc34)[C@@](C(=O)OC)(c3cc4c(cc3OC)N(C=O)[C@H]3[C@@](O)(C(=O)OC)[C@H](OC(C)=O)[C@]5(CC)C=CCN6CC[C@]43[C@@H]65)C2)C1` [vincristine, Sulfate of 22-oxovincaleukoblastine], the “activity in human rhabdosarcomas transplanted in nude mice” value with human rhabdosarcomas is listed as “very effective”. Further, the antitumour activity result in the series on tumour is “significant antitumour activity”.
Regarding `CCC1=C[C@@H]2CN(C1)Cc1c([nH]c3ccccc13)[C@@](C(=O)OC)(c1cc3c(cc1OC)N(C)[C@H]1[C@@](O)(C(=O)OC)[C@H](OC(C)=O)[C@]4(CC)C=CCN5CC[C@]31[C@@H]54)C2` [navelbine, 3',4'-didehydro-4'-deoxy-C'-norvincaleukoblastine-di-L-tartrate], the “potency against L1210 leukemia” value with L1210 leukemia was “less potent than vinbiastine and vincristine”.
